# Patent US10625229B2, “Device for preparing nano-carbon urea” (BEIJING NANO HI-TECH MATERIAL CO., LTD., priority 2016, dated 2020)
# Columns and labels:
# soybean = assay: Soybean potted test of nano urea (Heilongjiang); format: in vivo; conditions: urea 10.8 g per pot (full dosage), 3 plants per pot
# Excerpt: Soybean Experiment in Heilongjiang Agricultural Academy Test site: Heilongjiang Academy of Agricultural Sciences Laboratory Entrusted unit: Plant Nutrition and Environment Institute of Heilongjiang Agricultural Academy To determine the application effect and nitrogen utilization rate of nano-fertilizer on soybean and rice. Nano urea (46-0-0), calcium superphosphate (0-43-0), potassium sulfate (0-0-0-50), nano carbon sol content 0.57% solute, added amount is 10% of urea weight. Soybeans Potted Test There 3 plants per pot, repeat 6 times. N:P:K rating is 5:3.5:3, the results are as follows: […]
# corn = assay: Field experiment on application of nano-carbon urea in corn (2016, Inner Mongolia); format: in vivo, corn variety Simon 568; conditions: Pure N 20 kg/a unit of area (no nitrogen reduction)
# Excerpt: The results of the experiment on the application of nano-carbon urea by bimeng academy of agricultural sciences in Inner Mongolia in 2016 are as follows: Nano-carbon urea is provided by the invention containing 46% nitrogen, and the amount of nano-carbon sol added is 10% of fertilizer weight, color: grey. Corn variety: Simon 568 Test site: Garden Canal Test Station of Agriculture and Animal Husbandry Science Research Institute, Bayannur City Random plot arrangement, 5 treatments, four repeats, […], mulch planting.
compound,measurement,setting,value
"NC(N)=O [Common urea, urea]",Average yield g/pot,soybean,50 g/pot
same,Yield kg/a unit of area,corn,1002.98 kg/a unit of area
